For this assay, the target named is human activated kallikrein enzyme (Homo sapiens, UniProt P03952). Put plainly: Inhibition of human activated plasma kallikrein, fluorogenic PFR-AMC substrate, 500 pM enzyme format. The class given is biochemical. To be noted: 500 pM activated kallikrein; 300 μM PFR-AMC; 30 min preincubation; 10 min room temperature; pH 7.5; read-out: Primary Dose Response Assay: Average EC50. The method, boiled down:
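Using fluorogenic PFR-AMC at 300 μM, cleavage by 500 pM human activated kallikrein ran 10 min at room temperature, read at 460 nm emission (380 nm excitation). Enzyme and compounds were first preincubated 30 min in 20 mM Tris pH 7.5, 150 mM NaCl, 1 mM EDTA, 0.1% PEG-400, 0.1% Triton X-100.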

Molecules are shown by their SMILES. Some results are limits rather than exact numbers.

Data on 26 compounds can be found in patent publication US20260374754A1, “N-((ISOQUINOLIN-6-YL)METHYL)-1H-PYRAZOLE-4-CARBOXAMIDE DERIVATIVES AS PLASMA KALLIKREIN INHIBITORS FOR THE TREATMENT OF HEREDITARY ANGIODEMA” (Takeda Pharmaceutical Company Limited, priority 2022, published 2026).

As a reminder, the EC50 is the concentration that produces a half-maximal response.

human activated kallikrein enzyme, sequence (P03952 391-638 limits assumed): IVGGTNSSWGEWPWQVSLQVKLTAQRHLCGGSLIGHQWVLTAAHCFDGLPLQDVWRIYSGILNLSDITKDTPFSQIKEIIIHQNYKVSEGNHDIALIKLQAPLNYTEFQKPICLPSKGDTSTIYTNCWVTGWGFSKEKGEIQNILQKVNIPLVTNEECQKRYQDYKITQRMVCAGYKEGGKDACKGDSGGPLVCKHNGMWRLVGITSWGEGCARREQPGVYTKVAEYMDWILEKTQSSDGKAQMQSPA
human activated kallikrein enzyme, sequence (P03952 20-390 partner limits assumed): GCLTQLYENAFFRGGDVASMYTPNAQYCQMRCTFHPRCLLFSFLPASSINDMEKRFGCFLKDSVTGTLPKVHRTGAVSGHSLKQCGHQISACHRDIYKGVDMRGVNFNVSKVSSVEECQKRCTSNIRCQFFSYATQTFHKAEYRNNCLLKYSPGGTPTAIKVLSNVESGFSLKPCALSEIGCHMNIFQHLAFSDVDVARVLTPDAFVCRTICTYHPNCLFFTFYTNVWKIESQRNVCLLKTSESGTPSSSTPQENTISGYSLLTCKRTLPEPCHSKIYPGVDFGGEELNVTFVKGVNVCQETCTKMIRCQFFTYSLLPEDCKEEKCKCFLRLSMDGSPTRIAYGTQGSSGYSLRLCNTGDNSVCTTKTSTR

With `Cc1cc2c(N)nccc2c(C)c1CNC(=O)c1cc(CN)nn1Cc1ccccc1` [Example 202, N-((1-amino-5,7-dimethylisoquinolin-6-yl)methyl)-3-(aminomethyl)-1-benzyl-1H-pyrazole-5-carboxamide], the EC50 was > 1000 nM.

Consider `Cc1cc2c(N)nccc2c(C)c1CNC(=O)c1cc(CN)n(Cc2ccccc2)n1` [Example 203, N-((1-amino-5,7-dimethylisoquinolin-6-y1)methyl)-5-(aminomethyl)-1-benzyl-1H-pyrazole-3-carboxamide], for which the EC50 is > 1000 nM.

On to `Cc1cc2c(N)nccc2c(C)c1CNC(=O)c1cnn(Cc2ccc(CC(=O)N(C)CC3CC3)cc2)c1` [Example 204, N-((1-amino-5,7-dimethylisoquinolin-6-yl)methyl)-1-(4-(2-((cyclopropylmethyl)(methyl)amino)-2-oxoethyl)benzyl)-1H-pyrazole-4-carboxamide], for which the EC50 was 1 to 10 nM.

Consider `Cc1cc2c(N)nccc2c(C)c1CNC(=O)c1cnn(Cc2ccc(CC(=O)N3C[C@@H]4[C@H](C)[C@@H]4C3)cc2)c1` [Example 205, N-((1-amino-5,7-dimethylisoquinolin-6-yl)methyl)-1-(4-(2-((1R,5S,6r)-6-methyl-3-azabicyclo[3.1.0]hexan-3-y1)-2-oxoethyl)benzyl)-1H-pyrazole-4-carboxamide], for which the EC50 was < 1 nM.

For the compound `Cc1cc2c(N)nccc2c(C)c1CNC(=O)c1cnn(Cc2ccc(CC(=O)N3C[C@@H]4[C@H](CF)[C@@H]4C3)cc2)c1` [Example 206, N-((1-amino-5,7-dimethylisoquinolin-6-yl)methyl)-1-(4-(2-((1R,5S,6s)-6-(fluoromethyl)-3-azabicyclo[3.1.0]hexan-3-y1)-2-oxoethyl)benzyl)-1H-pyrazole-4-carboxamide], the concentration for a half-maximal effect (EC50) lay in the range of 1 to 10 nM.

With `Cc1cc2c(N)nccc2c(C)c1CNC(=O)c1cnn(Cc2ccc(CC(=O)N3C[C@@H]4[C@@H](CF)[C@@H]4C3)cc2)c1` [Example 207, N-((1-amino-5,7-dimethylisoquinolin-6-yl)methyl)-1-(4-(2-((1R,5S,6r)-6-(fluoromethyl)-3-azabicyclo[3.1.0]hexan-3-y1)-2-oxoethyl)benzyl)-1H-pyrazole-4-carboxamide], the EC50 fell in the range of 1 to 10 nM.

Turning to `Cc1cc2c(N)nccc2c(C)c1CNC(=O)c1cnn(Cc2ccc(CC(=O)N3C[C@@H]4[C@@H](CO)[C@@H]4C3)cc2)c1` [Example 208, N-((1-amino-5,7-dimethylisoquinolin-6-yl)methyl)-1-(4-(2-((1R,5S,6r)-6-(hydroxymethyl)-3-azabicyclo[3.1.0]hexan-3-y1)-2-oxoethyl)benzyl)-1H-pyrazole-4-carboxamide], the EC50 fell in the range of 10 to 100 nM.

Turning to `Cc1cc2c(N)nccc2c(C)c1CNC(=O)c1cnn(Cc2ccc(CC(=O)N3C[C@@H]4[C@H](CO)[C@@H]4C3)cc2)c1` [Example 209, N-((1-amino-5,7-dimethylisoquinolin-6-y1)methyl)-1-(4-(2-((1R,5S,6s)-6-(hydroxymethyl)-3-azabicyclo[3.1.0]hexan-3-y1)-2-oxoethyl)benzyl)-1H-pyrazole-4-carboxamide], the half-maximal effective concentration (EC50) was < 1 nM.

Regarding `Cc1cc2c(N)nccc2c(C)c1CNC(=O)c1cnn(Cc2ccc(CC(=O)N3C[C@@H]4[C@H](C3)[C@@H]4C(=O)O)cc2)c1` [Example 210, (1R,5S,6s)-3-(2-(4-((4-(((1-amino-5,7-dimethylisoquinolin-6-yl)methyl)carbamoyl)-1H-pyrazol-1-yl)methyl)phenyl)acetyl)-3-azabicyclo[3.1.0]hexane-6-carboxylic acid], the EC50 was in the range of 1 to 10 nM.

With `CCOC(=O)[C@@H]1[C@@H]2CN(C(=O)Cc3ccc(Cn4cc(C(=O)NCc5c(C)cc6c(N)nccc6c5C)cn4)cc3)C[C@@H]21` [Example 211, ethyl (1R,5S,6s)-3-(2-(4-((4-(((1-amino-5,7-dimethylisoquinolin-6-y1)methyl)carbamoyl)-1H-pyrazol-1-yl)methyl)phenyl)acetyl)-3-azabicyclo[3.1.0]hexane-6-carboxylate], the EC50 is < 1 nM.

Take `CCOC(=O)[C@H]1[C@@H]2CN(C(=O)Cc3ccc(Cn4cc(C(=O)NCc5c(C)cc6c(N)nccc6c5C)cn4)cc3)C[C@@H]21` [Example 212, ethyl (1R,SS,6r)-3-(2-(4-((4-(((1-amino-5,7-dimethylisoquinolin-6-y1)methyl)carbamoyl)-1H-pyrazol-1-yl)methyl)phenyl)acetyl)-3-azabicyclo[3.1.0]hexane-6-carboxylate]: the EC50 lay within 10 to 100 nM.

For the compound `Cc1cc2c(N)nccc2c(C)c1CNC(=O)c1cnn(Cc2ccc(CC(=O)N3C[C@@H]4[C@H](C3)[C@H]4C(=O)O)cc2)c1` [Example 213, (1R,5S,6r)-3-(2-(4-((4-(((1-amino-5,7-dimethylisoquinolin-6-yl)methyl)carbamoyl)-1H-pyrazol-1-yl)methyl)phenyl)acetyl)-3-azabicyclo[3.1.0]hexane-6-carboxylic acid], the half-maximal effective concentration (EC50) was 10 to 100 nM.

In the case of `Cc1cc2c(N)nccc2c(C)c1CNC(=O)c1cnn(Cc2ccc(CC(=O)N3CC4C(C3)C4(F)F)cc2)c1` (centres unmarked) [Example 214, N-((1-amino-5,7-dimethylisoquinolin-6-yl)methyl)-1-(4-(2-(6,6-difluoro-3-azabicyclo[3.1.0]hexan-3-yl)-2-oxoethyl)benzyl)-1H-pyrazole-4-carboxamide], the concentration giving a half-maximal response (EC50) was < 1 nM.

Turning to `Cc1cc2c(N)nccc2c(C)c1CNC(=O)c1cnn(Cc2ccc(CC(=O)N3CC4CC(C4)C3)cc2)c1` [Example 215, 1-(4-(2-(3-azabicyclo[3.1.1]heptan-3-yl)-2-oxoethyl)benzyl)-N-((1-amino-5,7-dimethylisoquinolin-6-yl)methyl)-1H-pyrazole-4-carboxamide], the half-maximal effective concentration (EC50) was in the range of 1 to 10 nM.

As for `Cc1cc2c(N)nccc2c(C)c1CNC(=O)c1cnn(Cc2ccc(CC(=O)N3CC4CC4(C(=O)O)C3)cc2)c1` (centres unmarked) [Example 216, 3-(2-(4-((4-(((1-amino-5,7-dimethylisoquinolin-6-yl)methyl)carbamoyl)-1H-pyrazol-1-yl)methyl)phenyl)acetyl)-3-azabicyclo[3.1.0]hexane-1-carboxylic acid], the EC50 fell in the range of 10 to 100 nM.

Consider `COC(=O)C12CC1CN(C(=O)Cc1ccc(Cn3cc(C(=O)NCc4c(C)cc5c(N)nccc5c4C)cn3)cc1)C2` (centres unmarked) [Example 217, methyl 3-(2-(4-((4-(((1-amino-5,7-dimethylisoquinolin-6-yl)methyl)carbamoyl)-1H-pyrazol-1-yl)methyl)pheny1)acetyl)-3-azabicyclo[3.1.0]hexane-1-carboxylate], for which the EC50 fell in the range of 1 to 10 nM.

Turning to `Cc1cc2c(N)nccc2c(C)c1CNC(=O)c1cnn(Cc2ccc(CC(=O)N3C(C)CCC3C)cc2)c1` (centres unmarked) [Example 218, N-((1-amino-5,7-dimethylisoquinolin-6-y1)methyl)-1-(4-(2-(2,5-dimethylpyrrolidin-1-yl)-2-oxoethyl)benzyl)-1H-pyrazole-4-carboxamide], the EC50 lay in the range of 1 to 10 nM.

As for `Cc1cc2c(N)nccc2c(C)c1CNC(=O)c1cnn(Cc2ccc(CC(=O)N3CCC3)cc2)c1` [Example 219, N-((1-amino-5,7-dimethylisoquinolin-6-yl)methyl)-1-(4-(2-(azetidin-1-yl)-2-oxoethyl)benzyl)-1H-pyrazole-4-carboxamide], the EC50 was < 1 nM.

`Cc1cc2c(N)nccc2c(C)c1CNC(=O)c1cnn(Cc2ccc(CC(=O)N(C)Cc3ccccc3)cc2)c1` [Example 220, N-((1-amino-5,7-dimethylisoquinolin-6-yl)methyl)-1-(4-(2-(benzyl(methyl)amino)-2-oxoethyl)benzyl)-1H-pyrazole-4-carboxamide]: the EC50 lay in the range of 1 to 10 nM.

As for `Cc1cc2c(N)nccc2c(C)c1CNC(=O)c1cnn(Cc2ccc(CC(=O)NC34CC(C3)C4)cc2)c1` [Example 221, N-((1-amino-5,7-dimethylisoquinolin-6-yl)methyl)-1-(4-(2-(bicyclo[1.1.1]pentan-1-ylamino)-2-oxoethyl)benzyl)-1H-pyrazole-4-carboxamide], the EC50 fell in the range of 1 to 10 nM.

In the case of `Cc1cc2c(N)nccc2c(C)c1CNC(=O)c1cnn(Cc2ccc(CC(=O)N3CCCCC3)cc2)c1` [Example 223, N-((1-amino-5,7-dimethylisoquinolin-6-yl)methyl)-1-(4-(2-oxo-2-(piperidin-1-yl)ethyl)benzyl)-1H-pyrazole-4-carboxamide], the EC50 lay within 1 to 10 nM.

Take `Cc1cc2c(N)nccc2c(C)c1CNC(=O)c1cnn(Cc2ccc(CC(=O)N(C)C3CC3)cc2)c1` [Example 224, N-((1-amino-5,7-dimethylisoquinolin-6-yl)methyl)-1-(4-(2-(cyclopropyl(methyl)amino)-2-oxoethyl)benzyl)-1H-pyrazole-4-carboxamide]: the EC50 was < 1 nM.

Take `Cc1cc2c(N)nccc2c(C)c1CNC(=O)c1cnn(Cc2ccc(CC(=O)N3CCOCC3)cc2)c1` [Example 225, N-((1-amino-5,7-dimethylisoquinolin-6-y1)methyl)-1-(4-(2-morpholino-2-oxoethyl)benzyl)-1H-pyrazole-4-carboxamide]: the concentration for a half-maximal effect (EC50) lay within 1 to 10 nM.

`CCN(CC)C(=O)Cc1ccc(Cn2cc(C(=O)NCc3c(C)cc4c(N)nccc4c3C)cn2)cc1` [Example 226, N-((1-amino-5,7-dimethylisoquinolin-6-yl)methyl)-1-(4-(2-(diethylamino)-2-oxoethyl)benzyl)-1H-pyrazole-4-carboxamide]: the EC50 was < 1 nM.

Regarding `Cc1cc2c(N)nccc2c(C)c1CNC(=O)c1cnn(Cc2ccc(CC(=O)Nc3ccccc3)cc2)c1` [Example 227, N-((1-amino-5,7-dimethylisoquinolin-6-yl)methyl)-1-(4-(2-oxo-2-(phenylamino)ethyl)benzyl)-1H-pyrazole-4-carboxamide], the EC50 was 10 to 100 nM.

As to `Cc1cc2c(N)nccc2c(C)c1CNC(=O)c1cnn(Cc2ccc(CC(=O)N(C)c3ccccc3)cc2)c1` [Example 228, N-((1-amino-5,7-dimethylisoquinolin-6-yl)methyl)-1-(4-(2-(methyl(phenyl)amino)-2-oxoethyl)benzyl)-1H-pyrazole-4-carboxamide], the EC50 fell in the range of 1 to 10 nM.
